From the NIST ThermoML archive (doi:10.1021/je800404f) come the findings set out here.

As usually defined, the refractive index is a measure of how strongly the sample bends light.

± gives the expanded uncertainty stated by the source.

This data set in a line: refractive index (Na D-line) (dimensionless). Particulars: 295.1 K; 101.33 kPa; Liquid; Standard Abbe refractometry.
Take `CC#N` [acetonitrile]: the refractive index amounted to 1.3441 ± 0.0024.

Turning to `CCCCCCC(=O)O` [heptanoic acid], the refractive index was 1.4175 ± 0.0024.

Regarding `CCCCCCCCCO` [nonan-1-ol], the refractive index is given as 1.4322 ± 0.0024.

In the case of `O` [water], the refractive index worked out at 1.333 ± 0.0024.
